Values after ≈ are worked out from the molar mass of the structure shown.
Assays:
Format in all cases: functional
Staphylococcus aureus [1] = assay: Antibacterial activity against methicillin-resistant Staphylococcus aureus 10281-2 clinical isolate after 20 to 24 hrs by two-fold microdilution method
Staphylococcus aureus [2] = assay: Antibacterial activity against methicillin-resistant Staphylococcus aureus 1216052 clinical isolate after 20 to 24 hrs by two-fold microdilution method
Staphylococcus aureus [3] = assay: Antibacterial activity against methicillin-resistant Staphylococcus aureus 20106-2 clinical isolate after 20 to 24 hrs by two-fold microdilution method
Staphylococcus aureus [4] = assay: Antibacterial activity against methicillin-resistant Staphylococcus aureus 110834 clinical isolate after 20 to 24 hrs by two-fold microdilution method
Staphylococcus aureus [5] = assay: Antibacterial activity against methicillin-resistant Staphylococcus aureus 131215 clinical isolate after 20 to 24 hrs by two-fold microdilution method
Staphylococcus aureus [6] = assay: Antibacterial activity against methicillin-resistant Staphylococcus aureus 831024 clinical isolate after 20 to 24 hrs by two-fold microdilution method
Staphylococcus aureus [7] = assay: Antibacterial activity against methicillin-resistant Staphylococcus aureus 121969 clinical isolate after 20 to 24 hrs by two-fold microdilution method
Staphylococcus aureus [8] = assay: Antibacterial activity against methicillin-resistant Staphylococcus aureus 1024004-2 clinical isolate after 20 to 24 hrs by two-fold microdilution method
Staphylococcus aureus [9] = assay: Antibacterial activity against methicillin-resistant Staphylococcus aureus 110432 clinical isolate after 20 to 24 hrs by two-fold microdilution method
Staphylococcus aureus [10] = assay: Antibacterial activity against methicillin-resistant Staphylococcus aureus 20339 clinical isolate after 20 to 24 hrs by two-fold microdilution method
Staphylococcus aureus [11] = assay: Antibacterial activity against methicillin-resistant Staphylococcus aureus 112106 clinical isolate after 20 to 24 hrs by two-fold microdilution method
Staphylococcus aureus [12] = assay: Antibacterial activity against methicillin-resistant Staphylococcus aureus 822030 clinical isolate after 20 to 24 hrs by two-fold microdilution method
Staphylococcus aureus [13] = assay: Antibacterial activity against methicillin-resistant Staphylococcus aureus 202045 clinical isolate after 20 to 24 hrs by two-fold microdilution method
Staphylococcus aureus [14] = assay: Antibacterial activity against methicillin-resistant Staphylococcus aureus 10844 clinical isolate after 20 to 24 hrs by two-fold microdilution method
Staphylococcus aureus [15] = assay: Antibacterial activity against methicillin-resistant Staphylococcus aureus 921026 clinical isolate after 20 to 24 hrs by two-fold microdilution method
Staphylococcus aureus [16] = assay: Antibacterial activity against methicillin-resistant Staphylococcus aureus 1113041 clinical isolate after 20 to 24 hrs by two-fold microdilution method
Streptococcus pyogenes = assay: Antibacterial activity against Streptococcus pyogenes ATCC 19615 after 20 to 24 hrs by two-fold microdilution method
Staphylococcus aureus [17] = assay: Antibacterial activity against methicillin-resistant Staphylococcus aureus 614019 clinical isolate after 20 to 24 hrs by two-fold microdilution method
Staphylococcus aureus [18] = assay: Antibacterial activity against methicillin-resistant Staphylococcus aureus 531220 clinical isolate after 20 to 24 hrs by two-fold microdilution method
Staphylococcus aureus [19] = assay: Antibacterial activity against methicillin-resistant Staphylococcus aureus GLH14 clinical isolate after 20 to 24 hrs by two-fold microdilution method
Staphylococcus aureus [20] = assay: Antibacterial activity against methicillin-resistant Staphylococcus aureus 118038 clinical isolate after 20 to 24 hrs by two-fold microdilution method
Staphylococcus aureus [21] = assay: Antibacterial activity against methicillin-resistant Staphylococcus aureus 110328-1 clinical isolate after 20 to 24 hrs by two-fold microdilution method
Staphylococcus aureus [22] = assay: Antibacterial activity against methicillin-resistant Staphylococcus aureus GLH15 clinical isolate after 20 to 24 hrs by two-fold microdilution method
Staphylococcus aureus [23] = assay: Antibacterial activity against methicillin-resistant Staphylococcus aureus 122820-2 clinical isolate after 20 to 24 hrs by two-fold microdilution method
Staphylococcus aureus [24] = assay: Antibacterial activity against methicillin-resistant Staphylococcus aureus 122710-2 clinical isolate after 20 to 24 hrs by two-fold microdilution method
Staphylococcus aureus [25] = assay: Antibacterial activity against methicillin-resistant Staphylococcus aureus 1026021 clinical isolate after 20 to 24 hrs by two-fold microdilution method
Staphylococcus aureus [26] = assay: Antibacterial activity against methicillin-resistant Staphylococcus aureus 304243 clinical isolate after 20 to 24 hrs by two-fold microdilution method
Staphylococcus aureus [27] = assay: Antibacterial activity against methicillin-resistant Staphylococcus aureus 102849 clinical isolate after 20 to 24 hrs by two-fold microdilution method
Staphylococcus aureus [28] = assay: Antibacterial activity against methicillin-resistant Staphylococcus aureus 414244 clinical isolate after 20 to 24 hrs by two-fold microdilution method
Staphylococcus aureus [29] = assay: Antibacterial activity against methicillin-resistant Staphylococcus aureus 120827 clinical isolate after 20 to 24 hrs by two-fold microdilution method
Staphylococcus aureus [30] = assay: Antibacterial activity against […] Staphylococcus aureus ATCC 25923 after 20 to 24 hrs by two-fold microdilution method
Staphylococcus aureus [31] = assay: Antibacterial activity against methicillin-resistant Staphylococcus aureus 221014 clinical isolate after 20 to 24 hrs by two-fold microdilution method
Staphylococcus aureus [32] = assay: Antibacterial activity against methicillin-resistant Staphylococcus aureus 908046 clinical isolate after 20 to 24 hrs by two-fold microdilution method
Staphylococcus aureus [33] = assay: Antibacterial activity against methicillin-resistant Staphylococcus aureus 111423 clinical isolate after 20 to 24 hrs by two-fold microdilution method
Staphylococcus aureus [34] = assay: Antibacterial activity against methicillin-resistant Staphylococcus aureus 1029025 clinical isolate after 20 to 24 hrs by two-fold microdilution method
Staphylococcus aureus [35] = assay: Antibacterial activity against methicillin-resistant Staphylococcus aureus 1107027 clinical isolate after 20 to 24 hrs by two-fold microdilution method
Staphylococcus aureus [36] = assay: Antibacterial activity against methicillin-resistant Staphylococcus aureus 123152 clinical isolate after 20 to 24 hrs by two-fold microdilution method
Staphylococcus aureus [37] = assay: Antibacterial activity against methicillin-resistant Staphylococcus aureus 1108204 clinical isolate after 20 to 24 hrs by two-fold microdilution method
Staphylococcus aureus [38] = assay: Antibacterial activity against methicillin-resistant Staphylococcus aureus 1012029 clinical isolate after 20 to 24 hrs by two-fold microdilution method
Staphylococcus aureus [39] = assay: Antibacterial activity against methicillin-resistant Staphylococcus aureus 121026 clinical isolate after 20 to 24 hrs by two-fold microdilution method
Staphylococcus aureus [40] = assay: Antibacterial activity against methicillin-resistant Staphylococcus aureus 1023043 clinical isolate after 20 to 24 hrs by two-fold microdilution method
Staphylococcus aureus [41] = assay: Antibacterial activity against methicillin-resistant Staphylococcus aureus 503025 clinical isolate after 20 to 24 hrs by two-fold microdilution method
Staphylococcus aureus [42] = assay: Antibacterial activity against methicillin-resistant Staphylococcus aureus clinical isolate after 20 to 24 hrs by two-fold microdilution method
Staphylococcus aureus [43] = assay: Antibacterial activity against methicillin-resistant Staphylococcus aureus 829034 clinical isolate after 20 to 24 hrs by two-fold microdilution method
Staphylococcus aureus [44] = assay: Antibacterial activity against methicillin-resistant Staphylococcus aureus 111625 clinical isolate after 20 to 24 hrs by two-fold microdilution method
Staphylococcus aureus [45] = assay: Antibacterial activity against methicillin-resistant Staphylococcus aureus 109016 clinical isolate after 20 to 24 hrs by two-fold microdilution method
Staphylococcus aureus [46] = assay: Antibacterial activity against methicillin-resistant Staphylococcus aureus 221022 clinical isolate after 20 to 24 hrs by two-fold microdilution method

With `CN(C)CCCCCOC(=O)c1c2c(n3cc(Br)ccc13)C(=O)c1ncccc1C2=O` as the compound, how does the MIC (Staphylococcus aureus [1]) read?
Its MIC is 0.25 µg/mL (≈ 0.516 µM).

What about the MIC (Staphylococcus aureus [2]) of the same compound?
The MIC was 4 µg/mL (≈ 8.26 µM).

And the MIC (Staphylococcus aureus [3])?
The MIC was 1 µg/mL (≈ 2.06 µM).

What about the MIC (Staphylococcus aureus [4]) of the same compound?
Its MIC is 0.5 µg/mL (≈ 1.03 µM).

And the MIC (Staphylococcus aureus [5])?
The MIC was 0.25 µg/mL (≈ 0.516 µM).

What about the MIC (Staphylococcus aureus [6]) of the same compound?
The MIC was 0.125 µg/mL (≈ 0.258 µM).

And the MIC (Staphylococcus aureus [7])?
The MIC was 0.25 µg/mL (≈ 0.516 µM).

What about the MIC (Staphylococcus aureus [8]) of the same compound?
Its MIC is 0.5 µg/mL (≈ 1.03 µM).

What about the MIC (Staphylococcus aureus [9]) of the same compound?
The MIC was 0.5 µg/mL (≈ 1.03 µM).

What about the MIC (Staphylococcus aureus [10]) of the same compound?
Its MIC is 0.5 µg/mL (≈ 1.03 µM).

And the MIC (Staphylococcus aureus [11])?
Its MIC is 0.25 µg/mL (≈ 0.516 µM).

And the MIC (Staphylococcus aureus [12])?
Its MIC is 0.5 µg/mL (≈ 1.03 µM).

What about the MIC (Staphylococcus aureus [13]) of the same compound?
The MIC was 0.5 µg/mL (≈ 1.03 µM).

What about the MIC (Staphylococcus aureus [14]) of the same compound?
Its MIC is 0.25 µg/mL (≈ 0.516 µM).

And the MIC (Staphylococcus aureus [15])?
Its MIC is 0.25 µg/mL (≈ 0.516 µM).

And the MIC (Staphylococcus aureus [16])?
Its MIC is 0.5 µg/mL (≈ 1.03 µM).

What about the MIC (Streptococcus pyogenes) of the same compound?
The MIC was 2 µg/mL (≈ 4.13 µM).

What about the MIC (Staphylococcus aureus [17]) of the same compound?
Its MIC is 0.125 µg/mL (≈ 0.258 µM).

What about the MIC (Staphylococcus aureus [18]) of the same compound?
The MIC was 0.25 µg/mL (≈ 0.516 µM).

What about the MIC (Staphylococcus aureus [19]) of the same compound?
Its MIC is 0.5 µg/mL (≈ 1.03 µM).

And the MIC (Staphylococcus aureus [20])?
The MIC was 0.25 µg/mL (≈ 0.516 µM).

And the MIC (Staphylococcus aureus [21])?
The MIC was 0.063 µg/mL (≈ 0.13 µM).

What about the MIC (Staphylococcus aureus [22]) of the same compound?
The MIC was 0.25 µg/mL (≈ 0.516 µM).

What about the MIC (Staphylococcus aureus [23]) of the same compound?
Its MIC is 0.125 µg/mL (≈ 0.258 µM).

And the MIC (Staphylococcus aureus [24])?
Its MIC is 0.25 µg/mL (≈ 0.516 µM).

And the MIC (Staphylococcus aureus [25])?
The MIC was 16 µg/mL (≈ 33 µM).

And the MIC (Staphylococcus aureus [26])?
Its MIC is 0.25 µg/mL (≈ 0.516 µM).

What about the MIC (Staphylococcus aureus [27]) of the same compound?
Its MIC is 0.25 µg/mL (≈ 0.516 µM).

And the MIC (Staphylococcus aureus [28])?
The MIC was 0.5 µg/mL (≈ 1.03 µM).

What about the MIC (Staphylococcus aureus [29]) of the same compound?
The MIC was 0.25 µg/mL (≈ 0.516 µM).

And the MIC (Staphylococcus aureus [30])?
The MIC was at most 0.0078 µg/mL.

And the MIC (Staphylococcus aureus [31])?
The MIC was 0.5 µg/mL (≈ 1.03 µM).

What about the MIC (Staphylococcus aureus [32]) of the same compound?
Its MIC is 0.063 µg/mL (≈ 0.13 µM).

What about the MIC (Staphylococcus aureus [33]) of the same compound?
The MIC was 2 µg/mL (≈ 4.13 µM).

What about the MIC (Staphylococcus aureus [34]) of the same compound?
The MIC was 0.25 µg/mL (≈ 0.516 µM).

What about the MIC (Staphylococcus aureus [35]) of the same compound?
The MIC was 0.5 µg/mL (≈ 1.03 µM).

What about the MIC (Staphylococcus aureus [36]) of the same compound?
Its MIC is 0.25 µg/mL (≈ 0.516 µM).

And the MIC (Staphylococcus aureus [37])?
Its MIC is 0.125 µg/mL (≈ 0.258 µM).

What about the MIC (Staphylococcus aureus [38]) of the same compound?
The MIC was 0.25 µg/mL (≈ 0.516 µM).

What about the MIC (Staphylococcus aureus [39]) of the same compound?
The MIC was 0.125 µg/mL (≈ 0.258 µM).

What about the MIC (Staphylococcus aureus [40]) of the same compound?
Its MIC is 0.25 µg/mL (≈ 0.516 µM).

And the MIC (Staphylococcus aureus [41])?
Its MIC is 0.5 µg/mL (≈ 1.03 µM).

What about the MIC50 (Staphylococcus aureus [42]) of the same compound?
The MIC50 was 0.25 µg/mL (≈ 0.516 µM).

And the MIC90 (Staphylococcus aureus [42])?
The MIC90 was 0.5 µg/mL (≈ 1.03 µM).

What about the MIC (Staphylococcus aureus [43]) of the same compound?
The MIC was 0.5 µg/mL (≈ 1.03 µM).

What about the MIC (Staphylococcus aureus [44]) of the same compound?
Its MIC is 0.25 µg/mL (≈ 0.516 µM).

What about the MIC (Staphylococcus aureus [45]) of the same compound?
Its MIC is 0.25 µg/mL (≈ 0.516 µM).

What about the MIC (Staphylococcus aureus [46]) of the same compound?
The MIC was 0.5 µg/mL (≈ 1.03 µM).
